14 compounds from ChEMBL document CHEMBL3352415, “Synthesis and biological evaluation of novel thiadiazole amides as potent Cdc25B and PTP1B inhibitors” (Bioorg Med Chem Lett, 2014) can be followed below.

Experiment [1] addresses T1, Tyrosine-protein phosphatase non-receptor type 1 (Homo sapiens, UniProt P18031).
T1 sequence (P18031 whole entry): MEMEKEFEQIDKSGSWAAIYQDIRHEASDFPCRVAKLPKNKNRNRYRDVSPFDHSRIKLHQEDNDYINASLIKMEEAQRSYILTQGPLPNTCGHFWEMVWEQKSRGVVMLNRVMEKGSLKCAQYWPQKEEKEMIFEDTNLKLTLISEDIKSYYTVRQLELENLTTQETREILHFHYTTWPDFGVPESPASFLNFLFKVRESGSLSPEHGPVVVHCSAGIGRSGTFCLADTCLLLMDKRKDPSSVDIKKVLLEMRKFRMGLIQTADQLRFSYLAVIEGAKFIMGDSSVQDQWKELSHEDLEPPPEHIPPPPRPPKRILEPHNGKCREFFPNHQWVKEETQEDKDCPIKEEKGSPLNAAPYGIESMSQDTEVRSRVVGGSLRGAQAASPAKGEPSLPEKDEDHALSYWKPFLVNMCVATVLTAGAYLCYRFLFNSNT
The experiment in a line: Inhibition of PTP1B (unknown origin).

For experiment [2], the target named is T2, Tyrosine-protein phosphatase non-receptor type 11 (Homo sapiens, UniProt Q06124).
T2 sequence (Q06124 whole entry): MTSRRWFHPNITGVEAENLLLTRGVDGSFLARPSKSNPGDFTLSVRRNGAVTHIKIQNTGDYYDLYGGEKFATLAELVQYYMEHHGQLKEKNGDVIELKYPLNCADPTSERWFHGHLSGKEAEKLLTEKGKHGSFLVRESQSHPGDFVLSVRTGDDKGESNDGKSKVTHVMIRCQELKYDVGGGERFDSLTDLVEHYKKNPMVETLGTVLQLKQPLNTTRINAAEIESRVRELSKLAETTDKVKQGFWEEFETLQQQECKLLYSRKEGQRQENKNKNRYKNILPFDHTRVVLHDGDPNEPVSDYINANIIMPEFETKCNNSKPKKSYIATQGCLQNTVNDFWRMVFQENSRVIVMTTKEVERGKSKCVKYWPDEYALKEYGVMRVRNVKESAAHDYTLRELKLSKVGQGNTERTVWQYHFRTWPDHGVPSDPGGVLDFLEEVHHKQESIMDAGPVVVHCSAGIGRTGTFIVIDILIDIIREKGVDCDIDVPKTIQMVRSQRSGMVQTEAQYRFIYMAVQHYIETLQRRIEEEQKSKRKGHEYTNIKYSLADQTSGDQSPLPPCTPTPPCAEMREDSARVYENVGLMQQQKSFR
The experiment in a line: Inhibition of SHP2 (unknown origin).

The target in experiment [3] is T3, M-phase inducer phosphatase 2 (Homo sapiens, UniProt P30305).
T3 sequence (P30305 whole entry): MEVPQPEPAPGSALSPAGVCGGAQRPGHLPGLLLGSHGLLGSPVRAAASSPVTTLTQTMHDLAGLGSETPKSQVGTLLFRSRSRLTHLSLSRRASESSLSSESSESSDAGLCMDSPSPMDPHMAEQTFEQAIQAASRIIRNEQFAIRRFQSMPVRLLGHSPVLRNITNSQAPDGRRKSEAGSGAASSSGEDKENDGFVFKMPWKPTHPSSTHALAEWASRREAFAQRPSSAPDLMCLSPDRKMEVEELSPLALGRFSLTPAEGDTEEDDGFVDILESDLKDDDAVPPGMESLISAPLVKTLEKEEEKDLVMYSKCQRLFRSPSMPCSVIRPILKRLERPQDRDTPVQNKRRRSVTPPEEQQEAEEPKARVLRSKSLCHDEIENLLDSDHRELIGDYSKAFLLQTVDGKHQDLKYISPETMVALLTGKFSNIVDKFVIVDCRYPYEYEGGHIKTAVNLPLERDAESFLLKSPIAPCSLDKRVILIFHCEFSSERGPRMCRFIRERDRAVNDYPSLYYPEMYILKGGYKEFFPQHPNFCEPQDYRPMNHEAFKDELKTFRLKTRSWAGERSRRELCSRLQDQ
The experiment in a line: Inhibition of Cdc25B (unknown origin).

Experiment [4] addresses T4, Tyrosine-protein phosphatase non-receptor type 2 (Homo sapiens, UniProt P17706).
T4 sequence (P17706 whole entry): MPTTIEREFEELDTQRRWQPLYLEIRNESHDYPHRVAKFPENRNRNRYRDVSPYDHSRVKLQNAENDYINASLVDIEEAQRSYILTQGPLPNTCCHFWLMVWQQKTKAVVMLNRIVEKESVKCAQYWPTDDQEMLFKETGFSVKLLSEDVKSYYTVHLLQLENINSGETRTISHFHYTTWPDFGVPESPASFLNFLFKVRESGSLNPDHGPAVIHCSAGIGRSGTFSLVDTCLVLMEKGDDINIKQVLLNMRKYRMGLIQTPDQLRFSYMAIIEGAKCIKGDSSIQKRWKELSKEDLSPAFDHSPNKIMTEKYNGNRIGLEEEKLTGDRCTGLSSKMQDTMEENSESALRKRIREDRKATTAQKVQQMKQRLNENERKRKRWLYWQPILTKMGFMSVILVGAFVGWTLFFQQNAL
The experiment in a line: Inhibition of TCPTP (unknown origin).

Experiment [5] addresses T5, M-phase inducer phosphatase 2 (Homo sapiens) (UniProt P30305).
T5 sequence (whole entry): T3 sequence (P30305 whole entry)
The experiment in a line: Inhibition of Cdc25B (unknown origin) at 5 ug/ml.

In experiment [6] the target is T6, Tyrosine-protein phosphatase non-receptor type 1 (Homo sapiens) (UniProt P18031).
T6 sequence (whole entry): T1 sequence (P18031 whole entry)
The experiment in a line: Inhibition of PTP1B (unknown origin) at 5 ug/ml.

Experiment [7] addresses Tyrosine-protein phosphatase non-receptor type 6 (Homo sapiens, UniProt P29350). The experiment in a line: Inhibition of SHP1 (unknown origin).
In experiment [8] the target is Receptor-type tyrosine-protein phosphatase F (Homo sapiens, UniProt P10586). The experiment in a line: Inhibition of LAR (unknown origin).
Receptor-type tyrosine-protein phosphatase F, sequence (P10586 whole entry): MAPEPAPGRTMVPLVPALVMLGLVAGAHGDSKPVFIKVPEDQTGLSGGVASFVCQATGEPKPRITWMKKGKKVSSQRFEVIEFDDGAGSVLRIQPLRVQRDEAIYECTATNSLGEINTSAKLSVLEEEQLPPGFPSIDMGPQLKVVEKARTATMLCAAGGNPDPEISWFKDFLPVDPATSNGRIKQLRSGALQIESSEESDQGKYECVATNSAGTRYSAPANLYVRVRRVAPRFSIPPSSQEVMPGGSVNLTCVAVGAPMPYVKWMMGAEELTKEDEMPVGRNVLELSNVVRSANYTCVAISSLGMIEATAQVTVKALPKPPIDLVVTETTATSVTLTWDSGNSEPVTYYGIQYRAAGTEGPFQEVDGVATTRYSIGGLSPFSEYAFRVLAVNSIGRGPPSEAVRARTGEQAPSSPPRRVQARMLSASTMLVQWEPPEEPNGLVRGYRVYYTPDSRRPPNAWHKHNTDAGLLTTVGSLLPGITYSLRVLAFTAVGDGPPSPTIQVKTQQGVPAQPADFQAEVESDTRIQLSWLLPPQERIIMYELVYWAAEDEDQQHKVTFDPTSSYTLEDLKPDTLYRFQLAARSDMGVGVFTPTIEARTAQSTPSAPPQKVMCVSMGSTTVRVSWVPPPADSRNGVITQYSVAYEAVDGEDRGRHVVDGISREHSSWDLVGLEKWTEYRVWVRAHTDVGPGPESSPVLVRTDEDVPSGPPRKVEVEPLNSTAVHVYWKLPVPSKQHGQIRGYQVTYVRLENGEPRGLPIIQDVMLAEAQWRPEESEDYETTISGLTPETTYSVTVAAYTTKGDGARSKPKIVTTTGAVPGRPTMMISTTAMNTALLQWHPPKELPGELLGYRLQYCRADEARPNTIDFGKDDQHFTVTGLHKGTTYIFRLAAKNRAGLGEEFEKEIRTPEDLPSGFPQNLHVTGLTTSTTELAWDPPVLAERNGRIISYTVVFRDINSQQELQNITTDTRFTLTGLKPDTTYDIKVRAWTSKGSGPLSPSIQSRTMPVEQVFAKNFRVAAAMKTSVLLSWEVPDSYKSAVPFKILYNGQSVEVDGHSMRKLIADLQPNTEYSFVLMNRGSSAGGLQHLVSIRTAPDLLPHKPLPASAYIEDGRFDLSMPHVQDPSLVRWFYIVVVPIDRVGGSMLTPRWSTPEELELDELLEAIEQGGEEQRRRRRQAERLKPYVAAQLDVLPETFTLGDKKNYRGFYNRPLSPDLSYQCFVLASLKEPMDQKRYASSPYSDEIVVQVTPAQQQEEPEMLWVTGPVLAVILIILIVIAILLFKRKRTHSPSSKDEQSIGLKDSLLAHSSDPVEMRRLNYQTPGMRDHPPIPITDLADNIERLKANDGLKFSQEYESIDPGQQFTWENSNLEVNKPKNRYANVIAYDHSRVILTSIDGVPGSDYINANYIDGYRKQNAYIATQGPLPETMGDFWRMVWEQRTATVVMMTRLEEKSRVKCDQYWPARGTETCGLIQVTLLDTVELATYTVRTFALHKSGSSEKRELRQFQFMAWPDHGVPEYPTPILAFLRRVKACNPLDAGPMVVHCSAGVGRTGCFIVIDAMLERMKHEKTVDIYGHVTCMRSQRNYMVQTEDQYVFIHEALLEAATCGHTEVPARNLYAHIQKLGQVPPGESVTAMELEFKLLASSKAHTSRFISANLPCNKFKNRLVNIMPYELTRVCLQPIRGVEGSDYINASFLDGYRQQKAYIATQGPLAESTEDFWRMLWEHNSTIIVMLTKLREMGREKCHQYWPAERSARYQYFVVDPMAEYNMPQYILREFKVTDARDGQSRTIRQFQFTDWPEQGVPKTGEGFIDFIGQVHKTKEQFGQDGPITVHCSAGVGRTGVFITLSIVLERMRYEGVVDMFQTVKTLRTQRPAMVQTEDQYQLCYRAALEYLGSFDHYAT

Tyrosine-protein phosphatase non-receptor type 6, sequence (P29350 whole entry): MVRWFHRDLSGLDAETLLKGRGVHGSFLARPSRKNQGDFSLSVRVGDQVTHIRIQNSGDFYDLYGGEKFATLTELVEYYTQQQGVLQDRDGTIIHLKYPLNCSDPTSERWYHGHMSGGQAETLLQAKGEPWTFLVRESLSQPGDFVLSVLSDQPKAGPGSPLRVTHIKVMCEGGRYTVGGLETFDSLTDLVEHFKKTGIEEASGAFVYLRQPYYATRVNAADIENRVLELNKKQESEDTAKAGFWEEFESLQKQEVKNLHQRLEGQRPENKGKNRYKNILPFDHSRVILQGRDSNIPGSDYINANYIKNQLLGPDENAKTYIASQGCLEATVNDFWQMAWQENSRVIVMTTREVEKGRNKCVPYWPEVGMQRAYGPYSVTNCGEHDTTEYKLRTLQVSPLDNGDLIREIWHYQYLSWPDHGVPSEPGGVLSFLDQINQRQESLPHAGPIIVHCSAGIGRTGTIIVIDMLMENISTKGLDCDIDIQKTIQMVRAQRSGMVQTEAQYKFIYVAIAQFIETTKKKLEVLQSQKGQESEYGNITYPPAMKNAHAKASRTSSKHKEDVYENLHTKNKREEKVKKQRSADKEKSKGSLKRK

The IC50 is the midpoint of a concentration-inhibition curve. Lower therefore signals inhibition by little substance. What is called inhibition is how much of the control response was suppressed. Low values mean little suppression, high ones strong suppression. As for `Cc1ccc(C(=O)Nc2nnc(-c3ccc(Oc4ccc([N+](=O)[O-])cc4[N+](=O)[O-])cc3)s2)cc1`, the IC50 in experiment [1] is 10.8 µM; in experiment [2], “Not Active”; in experiment [3], 2.47 µM; in experiment [4], “Not Active”; in experiment [7], “Not Active”; in experiment [8], “Not Active”. For the same compound, the figures for the inhibition in experiment [5] and in experiment [6] were 94.5% and 85.3%, respectively.

On to `O=C(Cc1cccc2ccccc12)Nc1nnc(-c2ccc(Oc3ccc([N+](=O)[O-])cc3)cc2)s1`, for which the IC50 in experiment [1] is 7.52 µM; in experiment [2], “Not Active”; in experiment [3], 5.16 µM; in experiment [4], “Not Active”; in experiment [7] it was “Not Active”; in experiment [8], “Not Active”. In addition, the inhibition worked out at 90.4% in experiment [5] and 74.1% in experiment [6].

Take `COc1ccc(C(=O)Nc2nnc(-c3ccc(Oc4ccc([N+](=O)[O-])cc4)cc3)s2)cc1`: the IC50 was 9.08 µM in experiment [1]; “Not Active” in experiment [2]; 2.77 µM in experiment [3]; “Not Active” in experiment [4]; “Not Active” in experiment [7]; “Not Active” in experiment [8]. The inhibition in experiment [5] amounted to 88.8%; in experiment [6] it was 72.6%.

For the compound `O=C(Nc1nnc(-c2ccc(Oc3ccc([N+](=O)[O-])cc3[N+](=O)[O-])cc2)s1)c1ccc([N+](=O)[O-])cc1`, the IC50 was 15.8 µM in experiment [1]; “Not Active” in experiment [2]; 9.4 µM in experiment [3]; “Not Active” in experiment [4]; “Not Active” in experiment [7]; “Not Active” in experiment [8]. For the same compound, the results for the inhibition in experiment [5] and in experiment [6] were 97.7% and 81.8%, respectively.

In the case of `O=C(Nc1nnc(-c2ccc(Oc3ccc([N+](=O)[O-])cc3[N+](=O)[O-])cc2)s1)c1ccccc1F`, the IC50 in experiment [1] is 3.51 µM; in experiment [2], “Not Active”; in experiment [3] it was 5.42 µM; in experiment [4], “Not Active”; in experiment [7], “Not Active”; in experiment [8], “Not Active”. Also, the inhibition came to 99.3% in experiment [5] and 88.4% in experiment [6].

As for `O=C(Nc1nnc(-c2ccc(Oc3ccc([N+](=O)[O-])cc3)cc2)s1)c1ccccc1`, the IC50 in experiment [1] was 9.89 µM; in experiment [2], “Not Active”; in experiment [3], 7.79 µM; in experiment [4], “Not Active”; in experiment [7], “Not Active”; in experiment [8], “Not Active”. Also, the figures for the inhibition in experiment [5] and in experiment [6] were 86.3% and 79.6%, respectively.

Consider `O=C(Nc1nnc(-c2ccc(Oc3ccc([N+](=O)[O-])cc3[N+](=O)[O-])cc2)s1)c1ccccc1[N+](=O)[O-]`, for which the half-inhibitory concentration (IC50) in experiment [1] was 8.12 µM; in experiment [2] it was “Not Active”; in experiment [3], 15.8 µM; in experiment [4] it was “Not Active”; in experiment [7] it was “Not Active”; in experiment [8] it was “Not Active”. The inhibition was found to be 88.3% in experiment [5] and 87.4% in experiment [6].

As to `O=C(Nc1nnc(-c2ccc(Oc3ccc([N+](=O)[O-])cc3)cc2)s1)c1ccco1`, the IC50 was 11.3 µM in experiment [1]; “Not Active” in experiment [2]; 6.44 µM in experiment [3]; “Not Active” in experiment [4]; “Not Active” in experiment [7]; “Not Active” in experiment [8]. Moreover, the inhibition in experiment [5] was found to be 87.7%; in experiment [6], 75.1%.

For `COc1cc(C(=O)Nc2nnc(-c3ccc(Oc4ccc([N+](=O)[O-])cc4[N+](=O)[O-])cc3)s2)cc(OC)c1OC`, the IC50 in experiment [1] was 5.24 µM; in experiment [2], “Not Active”; in experiment [3], 3.99 µM; in experiment [4], “Not Active”; in experiment [7], “Not Active”; in experiment [8], “Not Active”. Besides, the results for the inhibition in experiment [5] and in experiment [6] were 84.5% and 84.2%, respectively.

Turning to `O=C(Cc1ccccc1)Nc1nnc(-c2ccc(Oc3ccc([N+](=O)[O-])cc3[N+](=O)[O-])cc2)s1`, the IC50 was 4.11 µM in experiment [1]; “Not Active” in experiment [2]; 3.29 µM in experiment [3]; “Not Active” in experiment [4]; “Not Active” in experiment [7]; “Not Active” in experiment [8]. The inhibition in experiment [5] came out at 91.7%; in experiment [6], 90.9%.

On to `Cc1ccccc1C(=O)Nc1nnc(-c2ccc(Oc3ccc([N+](=O)[O-])cc3[N+](=O)[O-])cc2)s1`, for which the IC50 in experiment [1] was 8.44 µM; in experiment [2] it was “Not Active”; in experiment [3], 6.51 µM; in experiment [4], “Not Active”; in experiment [7] it was “Not Active”; in experiment [8], “Not Active”. In addition, the inhibition in experiment [5] is 93.7%; in experiment [6] it was 84%.

With `Cc1ccccc1C(=O)Nc1nnc(-c2ccc(Oc3ccc([N+](=O)[O-])cc3)cc2)s1`, the half-maximal inhibitory concentration (IC50) was 8.05 µM in experiment [1]; “Not Active” in experiment [2]; 9.41 µM in experiment [3]; “Not Active” in experiment [4]; “Not Active” in experiment [7]; “Not Active” in experiment [8]. In addition, the results for the inhibition in experiment [5] and in experiment [6] were 94% and 60.4%, respectively.

Regarding `COc1cccc(C(=O)Nc2nnc(-c3ccc(Oc4ccc([N+](=O)[O-])cc4[N+](=O)[O-])cc3)s2)c1`, the IC50 in experiment [1] was 10.8 µM; in experiment [2], “Not Active”; in experiment [3] it was 8.33 µM; in experiment [4], “Not Active”; in experiment [7] it was “Not Active”; in experiment [8], “Not Active”. The inhibition in experiment [5] was determined as 92.6%; in experiment [6], 86.3%.

As to `O=C(Nc1nnc(-c2ccc(Oc3ccc([N+](=O)[O-])cc3)cc2)s1)c1ccc([N+](=O)[O-])cc1`, the IC50 is 3.6 µM in experiment [1]; “Not Active” in experiment [2]; 8.54 µM in experiment [3]; “Not Active” in experiment [4]; “Not Active” in experiment [7]; “Not Active” in experiment [8]. The inhibition turned out to be 96.4% in experiment [5] and 95.2% in experiment [6].
